Assay results reported in US6034246A, “2-arylbenzazole compounds” (Cancer Research Campaign Technology Limited, priority 1995, dated 2000).

Legend:
[1] = test system: OVCAR-3; experiment: in vitro activity against human ovarian cell line OVCAR-3 (Table 2); assay type: cell-based
Description: (§1) Tables 1 to 4 at the end of the present description show in vitro test results obtained in various sets of experiments for the cytotoxic activity of several of the benzazole compounds concerned, including also for reference results for the compound CJM 126 and comparative results for compound DF129, when tested against a range of tumor cell lines which includes ovarian, lung and certain colon and renal cancer cells from the National Cancer Institute (USA) collection. As usual the results are expressed in terms of IS50 values (concentration or dosage required to reduce cell growth or proliferation by 50%) calculated from dose-effect curves plotted for cultures of the cells in question.
(§2) In carrying out the in vitro studies, the cytotoxicity assays may be carried out by a method corresponding substantially to the following example: […]
(§3) On day 7 the test was terminated by the addition of 100 μl saline containing 0.002% w/v propidium iodide (Sigma), 0.3% drawing ink (Staedtler "Marsmatic 745"--Trade Mark) and 0.5% Triton X-100. The plates were kept at 4° C. overnight before reading on an inverted microscope equipped with an automated scanning stage. Fluorescence intensity was measured in arbitrary units by a photomultiplier. […]

[2] = test system: OVCAR-5; experiment: in vitro activity against human ovarian cell line OVCAR-5 (Table 2); assay type: cell-based
Description: as §1, §2, §3

[3] = test system: SDBR3; experiment: in vitro inhibitory activity against human breast tumour cell line SDBR3 (Table 4); assay type: cell-based; settings: initial seeding density 2.5 × 10^2 cells/well
Description: as §1, §2, §3

[4] = test system: MT-1; experiment: in vivo antitumor test, human breast carcinoma MT-1 xenotransplanted in nude mice; settings: MT-1, optimum dose 6.25 mg/Kg/inj i.p., qd 7, 14, 21
Procedure: (§4) In one typical set of experiments, four human breast carcinomas xenotransplanted into female Ncr: nu/nu (Taconic, Germantown, U.S.A.) or male Bom: NMRI-nu/nu mice (Bomholtgaard, Ry, Denmark) were used for the evaluation of antitumor activity. Mice weighing 20-25 g at the start of experiments were held under sterile conditions at 24-26° C., 50% relative humidity and 12 hours light-dark rhythm in laminar flow shelves. The animals received autoclaved food and bedding; the drinking water was filtered and acidified (pH4.0).
(§5) The following breast carcinoma cell lines were used: BO; MCF-7 (NCI, U.S.A.); MT-1 and MT-3. The tumors BO and MCF-7 are ER^+ models: the carcinomas MT-1 and MT-3 are ER^- ones. Tumors were transplanted subcutaneously (s.c.) as pieces (2×2 mm) into the left flank of 5-8 nude mice/experimental group. Drug treatment was initiated when the tumors reached a diameter of 4-5 mm. […] Tumor size was measured twice weekly with a caliper. Median tumor volume/group was related to the first treatment day and expressed as Relative Tumor Volume (RTV). For the estimation of toxicity, body weight was determined twice weekly and the mean percentage body weight change (BCC) was calculated. In one experiment blood was obtained from the retroorbital venous plexus of mice and blood cells were determined with a Coulter counter (Model T41).

[5] = test system: MT-3; experiment: in vivo antitumor test, human breast carcinoma MT-3 xenotransplanted in nude mice; settings: MT-3, optimum dose 12.5 mg/Kg/inj i.p., qd 7, 14, 21
Procedure: as §4, §5

[6] = marked * significant versus control

Row | IC50 [1] | IC50 [2] | Structure (SMILES) | IC50 [3] | evaluation [4] | RTV, relative tumor volume (T/C %) [4, 6] | evaluation [5] | RTV, relative tumor volume (T/C %) [5, 6]
1 | 600 nM | 300 nM | Nc1ccc(-c2nc3ccccc3s2)cc1I [DF129, 2-(4'-amino-3'-iodophenyl)benzothiazole] | < 1 nM |  |  |  | 
2 |  |  | Cc1cc(-c2nc3ccccc3s2)ccc1N [DF203, 2-(4'-amino-3'-methylphenyl)benzothiazole] |  | ++ (T/C = 21-35%) | 34% | ++ (T/C = 21-35%) | 22%
